Patent US8637263B1, “Assay for determination of compounds having anti-emetic activity” (Epiomed Therapeutics, Inc., priority 2010, dated 2014)
Counter-ions that a name gives are not always drawn.

Test system: xylazine-induced emesis
Experiment: Xylazine-induced emesis in cats, with defensive behavior/anxiety scoring
Type: in vivo
Details: for anxiety 15 minutes after treatment / cats that vomited / protection against xylazine-induced emesis: FIG. 1, female cats; for cats that vomited / protection against xylazine-induced emesis: observed 30 min; for anxiety-inducing effect in test subjects / effectiveness in preventing chemically-induced emesis: administered alone, summary statement; for Defensive Behavior Scale / % Protection (vomiting) / Mean Latency (to retch/vomit) / Mean Defensive Score: cats; for % Protection (vomiting) / Mean Latency (to retch/vomit): xylazine 0.66 mg/kg
Experimental: […], 0.66 mg/kg xylazine was administered subcutaneously, and the test subjects where then observed for 30 minutes.
Cats not susceptible to motion sickness were assigned to the xylazine testing group. Xylazine stimulates receptors on a pathway different from that used by motion sickness and thus served as a test of the generality of anti-emetic effects observed with motion testing.
Prior to the evaluation of anti-emetic compounds, the production of an emetic response by xylazine in felines was confirmed in the laboratory. Cats were injected subcutaneously with either a freshly prepared solution of 0.66 mg/kg of xylazine in 0.9% sodium chloride or 0.9% sodium chloride vehicle, both adjusted to an injection volume of 0.1 ml/kg.
One week following the confirmation of an emetic response by the cats, subject cats were given either vehicle or test compound/composition in 0.9% sodium chloride or vehicle (injection volume of 0.1 ml/kg) subcutaneously, 20 minutes before administration of xylazine. […] Animals were scored using the vomit scale developed by Suri et al., 1979. Additional experiments were separated by at least a 1 week washout period.
A. Vomit Scale Scoring: • 1. Sal I (licking—parasympathetic): 1 pt • 2. Sal II (drool, thin/frothy—early sympathetic): 2 pts • 3. Sal III (stringy saliva, dangles—sympathetic): 4 pts • 4. Defection: 8 pts • 5. Urination: 8 pts • 6. Wretch/vomiting: 16 pts
B. Defensive Behavior Scale: • 1. No defensiveness: normal behavior; • 2. Slight defensiveness: retreating to the rear of the cage when approached and/or growling when being carried; • 3. […] Strong defensiveness: vigorous clawing and biting to prevent being handled. IV. Statistical Methods
Dose response curves were analyzed by Cochran's Q-test to establish significant effects. Paired comparisons were made using McNemar's test. Tests for line parallelism, relative potency and ED50 were based on least squares regression in a program for pharmacological statistics. The data from the nonparametric rating scale was analyzed using Friedman's analysis of variance model (ANOVA).

[1] = 0.08 mg/kg SC 15 min before xylazine 0.66 mg/kg SC

With `CCCN(CCC)[C@H]1CCc2cccc(O)c2C1` [S-(−)-DPAT, S(−)-8-Hydroxy-2-(dipropylamino)tetralin hydrobromide] the “anxiety 15 minutes after treatment” value (0.08 mg/kg SC) was “did not show any anxiety”, the cats that vomited [1] was 40% and the “protection against xylazine-induced emesis” value [1] was 60%. For the same compound, the “anxiety-inducing effect in test subjects” value was “no anxiety or only slight anxiety”, the “effectiveness in preventing chemically-induced emesis” value was “not fully effective” and the “Defensive Behavior Scale” value (0.08 mg/kg SC) was “None”. The “% Protection (vomiting)” value (0.08 mg/kg SC) was 75.00%, the “Mean Latency (to retch/vomit)” value (0.08 mg/kg SC) was 1.58 min and the “Defensive Behavior Scale” value (0.16 mg/kg SC) was “None”. The “% Protection (vomiting)” value (0.16 mg/kg SC) was 85.71%, the “Mean Latency (to retch/vomit)” value (0.16 mg/kg SC) was 0.82 min and the “Defensive Behavior Scale” value (0.32 mg/kg SC) was “Slight”. The “Mean Defensive Score” value (0.32 mg/kg SC) was 1.0, the “% Protection (vomiting)” value (0.32 mg/kg SC) was 80.00% and the “Mean Latency (to retch/vomit)” value (0.32 mg/kg SC) was 1.00 min.
For `CCCN(CCC)C1CCc2cccc(O)c2C1` (racemic) [R/S-(+/−)-DPAT, (±)-8-Hydroxy-2-(dipropylamino)tetralin], the “anxiety 15 minutes after treatment” value (0.16 mg/kg SC) was “moderate level of anxiety”, the “protection against xylazine-induced emesis” value (0.16 mg/kg SC 15 min before xylazine 0.66 mg/kg SC) was 100% and the “Defensive Behavior Scale” value (0.16 mg/kg SC) was “Moderate”. The “Mean Defensive Score” value (0.16 mg/kg SC) was 2.0 and the “% Protection (vomiting)” value (0.16 mg/kg SC) was 100.00%.
In the case of `CCCN(CCC)[C@@H]1CCc2cccc(O)c2C1` [R-(+)-DPAT, R(+)-8-Hydroxy-2-(dipropylamino)tetralin hydrobromide], the “anxiety 15 minutes after treatment” value (0.08 mg/kg SC) is reported as “extreme level of anxiety”, the cats that vomited [1] is reported as “none of the cats vomited” and the “anxiety-inducing effect in test subjects” value is reported as “moderate to strong”. For the same compound, the “effectiveness in preventing chemically-induced emesis” value was 100%, the “Defensive Behavior Scale” value (0.02 mg/kg SC) was “Moderate” and the “Mean Defensive Score” value (0.02 mg/kg SC) was 2.0. For the same compound, the “% Protection (vomiting)” value (0.02 mg/kg SC) was 100.00%, the “Defensive Behavior Scale” value (0.04 mg/kg SC) was “Strong” and the “Mean Defensive Score” value (0.04 mg/kg SC) was 3.0. The “% Protection (vomiting)” value (0.04 mg/kg SC) was 100.00%, the “Defensive Behavior Scale” value (0.08 mg/kg SC) was “Strong” and the “Mean Defensive Score” value (0.08 mg/kg SC) was 3.0. The “% Protection (vomiting)” value (0.08 mg/kg SC) was 100.00%.
